From patent US10047084B2, “Imidazolone derivatives, pharmaceutical compositions and uses thereof” (BEIJING FORELANDPHARMA CO. LTD., priority 2013, dated 2018)

Experiments:
Assay type in all cases: cell-based
[1] = tested on: SK-BR3/BT474; assay: CTG cell survival assay, SK-BR3/BT474; conditions: SK-BR3/BT474 cells
Text: (§1) 2. CTG Cell Survival Assay:
(§2) ATP is necessarily produced during the metabolic activities of viable cells, and there is a linear relationship between the content of ATP and the number of viable cells. Cell viability assay by CTG chemiluminescence is a general method for detecting the number of viable cells in the culture cells based on this principle. The addition of the CellTiter-Glo (CTG) reagent may induce cell lysis and produce chemiluminescent signals directly proportional to the amount of ATP in the well-plate, and thereby the cell proliferation activity in the well-plate can be measured by the reading values from the chemiluminescence.
(§3) 2.1 Experimental Materials and Instruments:
(§4) 2.4 Experimental Procedure: • 1.4.1 Cell Thawing: Cryogenic vials were removed from the liquid nitrogen container, directly immersed in a water bath at 37° C., and shaked from time to time to thaw. The cryogenic vials were removed from the water bath at 37° C., and transferred to the biosafe cabinet. Their lids were opened, and the cell suspensions were aspirated with pipettes, added to centrifuge tubes, and then added with more than 10 volumes of culture solution, mixed well; centrifuged for 5 min at 1000 rpm; the supernatant was discarded, and medium containing cell growth was added to resuspend cells. All cell suspensions were seeded to the T25 culture flasks and static cultured in an incubator at 37° C.; the culture solution were changed once on the next day, and continued to be cultured. • 2.4.2 Cell Passaging: After cells were grown to logarithmic phase and were 80%-90% confluent, cells were removed and placed in the biosafe cabinet, the old culture solution was discarded, and the cells were wetted and washed with PBS once or twice. An appropriate amount of 0.25% Trypsin-EDTA solution was added to the culture flasks. The flasks were placed in the carbon dioxide incubator at 37° C. for 2-5 min. An appropriate amount of cell growth medium containing 10% PBS was added to terminate the digestion, lightly swished, and transferred to the centrifuge tubes and centrifuged for 5 min at 1000 rpm. The cells were prepare (into cell suspensions for passaging and experimental use. • 2.4.3 Cell Plating • 2.4.3.1 A cell suspension was prepared: After cells were grown to logarithmic phase and were 80%-90% confluent, the cells were removed to the biosafe cabinet, and the old culture solution was discarded, then the cells were wetted and washed with PBS once or twice. An appropriate amount of 0.25% Trypsin-EDTA solution was added to the culture flask. The flask was placed in a carbon dioxide incubator at 37° C. for 2-5 min. An appropriate amount of the cell growth medium containing 10% PBS was added to terminate digestion, and was lightly swished. The solution was transferred to a centrifuge tube, centrifuged for 5 min at 1000 rpm, and counted. […] Secondly, 20 uM of the compound to be tested was diluted with the cell growth medium containing 0.2% DMSO in 3-fold dilution to obtain 9 concentrations, and there were 10 concentration gradients in total. • 2.4.4.3 Addition of the compounds to be tested: the prepared gradient dilution solutions of compounds to be tested were taken and added to the cell culture plate at 100 ul/well; at this point, the maximum concentration of compounds to be tested was 10 uM, and the concentration of DMSO was 0.1%.

[2] = tested on: MV-4-11; assay: CTG cell survival assay, MV-4-11; conditions: Homo sapiens, MV4-11, MV-4-11 cells
Text: as §1, §2, §3
2.1.1 Experimental Materials: compounds to be tested, cell basal culture medium, RPMI Medium 1640 (Invitrogen, Cat#11875-093), fetal calf serum (FBS): Hyclone FETAL BOVINE SERUM DEFINED (Invitrogen, Cat#SH30070.03), antibiotics: Penicilin Streptomycin (Invitrogen, Cat#15140-122), phosphate buffer (Corning Cellgro, Cat#R21-040-CV), cell digestive solution: 0.25% Trypsin-EDTA (Invitrogen, Cat#25200-056), CTG detection kit: Promega, Cat#G7571, flat-bottom 96-well black bottom plate: NUNC, Cat#165305, T25 culture flask: NUNC, Cat#156367, T75 culture flask: NUNC, Cat#156439
2.2 Experimental Instruments: Carbon Dioxide Incubator, SANYO-MCO-20AIC, Biosafe Cabinet: BSC-1360-LIIA2, Table-Top High-Speed Refrigerated Centrifuge: SorvallST 16R, Microplate Rapid Oscillator: QB-9001, M3 Reader: SpectraMax M3, Microscope: OLYMPUS-CKX41/CKX31.
2.3 Preparation of Solutions and Reagents: Formulation of cell growth medium: RPMI Medium 1640+10% FBS+antibiotics, others: trypsin digestive solution, phosphate buffer (PBS), DMSO, CTG detection kit.
2.4 Experimental Procedure: • 1.4.1 Cell Thawing: Cryogenic vials were removed from the liquid nitrogen container, directly immersed in a water bath at 37° C., and shaked from time to time to thaw. The cryogenic vials were removed from the water bath at 37° C., and transferred to the biosafe cabinet. Their lids were opened, and the cell suspensions were aspirated with pipettes, added to centrifuge tubes, and then added with more than 10 volumes of culture solution, mixed well; centrifuged for 5 min at 1000 rpm; the supernatant was discarded, and medium containing cell growth was added to resuspend cells. All cell suspensions were seeded to the T25 culture flasks and static cultured in an incubator at 37° C.; the culture solution were changed once on the next day, and continued to be cultured. • 2.4.2 Cell Passaging: After cells were grown to logarithmic phase and were 80%-90% confluent, cells were removed and placed in the biosafe cabinet, the old culture solution was discarded, and the cells were wetted and washed with PBS once or twice. An appropriate amount of 0.25% Trypsin-EDTA solution was added to the culture flasks. The flasks were placed in the carbon dioxide incubator at 37° C. for 2-5 min. An appropriate amount of cell growth medium containing 10% PBS was added to terminate the digestion, lightly swished, and transferred to the centrifuge tubes and centrifuged for 5 min at 1000 rpm. The cells were prepare (into cell suspensions for passaging and experimental use. • 2.4.3 Cell Plating • 2.4.3.1 A cell suspension was prepared: After cells were grown to logarithmic phase and were 80%-90% confluent, the cells were removed to the biosafe cabinet, and the old culture solution was discarded, then the cells were wetted and washed with PBS once or twice. An appropriate amount of 0.25% Trypsin-EDTA solution was added to the culture flask. The flask was placed in a carbon dioxide incubator at 37° C. for 2-5 min. An appropriate amount of the cell growth medium containing 10% PBS was added to terminate digestion, and was lightly swished. The solution was transferred to a centrifuge tube, centrifuged for 5 min at 1000 rpm, and counted. […]

[3] = tested on: PC-3; assay: CTG cell survival assay, PC-3; conditions: Homo sapiens, PC-3 cells
Text: as §1, §2, §3, §4

Compound | EC50 [1] [nM] | EC50 [2] [nM] | EC50 [3] [nM]
Cn1c(=O)n([C@H]2CCN(S(C)(=O)=O)C2)c2c3cc(-c4ccc(-n5ccnn5)nc4)ccc3ncc21 [Example 46, (S)-8-(6-(1H-1,2,3-triazol-1-yl)pyridin-3-yl)-3-methyl-1-(1-(methanesulfonyl)pyrrolidin-3-yl)-1H-imidazo[4,5-c]quinolin-2(3H)-one] | 400 |  | 
Cn1cc(-c2ccc(-c3ccc4ncc5c(c4c3)n(-c3ccc(C(C)(C)C(N)=O)cc3)c(=O)n5C)cn2)cn1 [Example 40, 2-methyl-2-(4-(3-methyl-8-(6-(1-methyl-1H-pyrazol-4-yl)pyridin-3-yl)-2-oxo-2,3-dihydro-1H-imidazo[4,5-c]quinolin-1-yl)phenyl)propionamide] | 25 | 30 | 10
Cn1cc(-c2ccc(-c3ccc4ncc5c(c4c3)n([C@H]3CC[C@@H](O)CC3)c(=O)n5C)cn2)nn1 [Example 51, 1-((1s,4s)-4-hydroxycyclohexyl)-3-methyl-8-(6-(1-methyl-1H-1,2,3-triazol-4-yl)pyridin-3-yl)-1H-imidazo[4,5-c]quinolin-2(3H)-one] | 10 | < 20 | < 10
Cn1cc(-c2ccc(-c3ccc4ncc5c(c4c3)n([C@@H]3CCCN(S(=O)(=O)C4CC4)C3)c(=O)n5C)cn2)cn1 [Example 53, (R)-1-(1-(cyclopropylsulfonyl)piperidin-3-yl)-3-methyl-8-(6-(1-methyl-1H-pyrazol-4-yl)pyridin-3-yl)-1H-imidazo[4,5-c]quinolin-2(3H)-one] | 100 |  | < 20
Cn1cc(-c2ccc(-c3ccc4ncc5c(c4c3)n(-c3ccc(C(C)(C)C(=O)O)cc3)c(=O)n5C)cn2)cn1 [Example 41, 2-methyl-2-(4-(3-methyl-8-(6-(1-methyl-1H-pyrazol-4-yl)pyridin-3-yl)-2-oxo-2,3-dihydro-1H-imidazo[4,5-c]quinolin-1-yl)phenyl)propionic acid] |  | 100 | 
Cn1cc(-c2ccc(-c3ccc4ncc5c(c4c3)n(C3CCN(S(C)(=O)=O)CC3)c(=O)n5C)cn2)nn1 [Example 60, 3-methyl-8-(6-(1-methyl-1H-1,2,3-triazol-4-yl)pyridin-3-yl)-1-(1-(methanesulfonyl)piperidin-4-yl)-1H-imidazo[4,5-c]quinolin-2(3H)-one] | 40 | < 100 | < 30
Cn1cc(-c2ccc(-c3ccc4ncc5c(c4c3)n(C3CC4CCC(C3)N4S(C)(=O)=O)c(=O)n5C)cn2)cn1 (centres unmarked) [Example 62, 3-methyl-8-(6-(1-methyl-1H-pyrazol-4-yl)pyridin-3-yl)-1-(8-(methanesulfonyl)-8-azabicyclo[3.2.1]octan-3-yl)-1H-imidazo[4,5-c]quinolin-2(3H)-one] | < 20 | < 20 | < 10
Cn1cc(-c2ccc(-c3ccc4ncc5c(c4c3)n([C@@H]3CCCN(S(C)(=O)=O)C3)c(=O)n5C)cn2)nn1 [Example 58, (R)-3-methyl-8-(6-(1-methyl-1H-1,2,3-triazol-4-yl)pyridin-3-yl)-1-(1-(methanesulfonyl)piperidin-3-yl)-1H-imidazo[4,5-c]quinolin-2(3H)-one] |  | 60 | 
Cn1c(=O)n([C@H]2CC[C@H](O)CC2)c2c3cc(-c4ccc(-c5ccccc5)nc4)ccc3ncc21 [Example 25, 1-((1r,4r)-4-hydroxycyclohexyl)-3-methyl-8-(6-phenylpyridin-3-yl)-1H-imidazo[4,5-c]quinolin-2(3H)-one] | < 500 | < 500 | < 100
CC(=O)N[C@H]1CC[C@@H](n2c(=O)n(C)c3cnc4ccc(-c5ccc(-c6cnn(C)c6)nc5)cc4c32)CC1 [Example 33, N-((1s,4s)-4-(3-methyl-8-(6-(1-methyl-1H-pyrazol-4-yl)pyridin-3-yl)-2-oxo-2,3-dihydro-1H-imidazo[4,5-c]quinolin-1-yl)cyclohexyl)acetamide] | < 100 | < 500 | < 200
Cn1cc(-c2ccc(-c3ccc4ncc5c(c4c3)n([C@H]3CC[C@@H](C(=O)O)CC3)c(=O)n5C)cn2)cn1 [Example 35, (1s,4s)-4-(3-methyl-8-(6-(1-methyl-1H-pyrazol-4-yl)pyridin-3-yl)-2-oxo-2,3-dihydro-1H-imidazo[4,5-c]quinolin-1-yl)cyclohexanecarboxylic acid] | < 200 | < 500 | 
Cn1cnc(-c2ccc(-c3ccc4ncc5c(c4c3)n([C@H]3CCN(S(C)(=O)=O)C3)c(=O)n5C)cn2)n1 [Example 48, (S)-3-methyl-8-(6-(1-methyl-1H-1,2,4-triazol-3-yl)pyridin-3-yl)-1-(1-(methanesulfonyl)pyrrolidin-3-yl)-1H-imidazo[4,5-c]quinolin-2(3H)-one] | < 100 |  | 
Cn1cc(-c2ccc(-c3ccc4ncc5c(c4c3)n([C@@H]3CCCN(S(N)(=O)=O)C3)c(=O)n5C)cn2)cn1 [Example 54, (R)-3-(3-methyl-8-(6-(1-methyl-1H-pyrazol-4-yl)pyridin-3-yl)-2-oxo-2,3-dihydro-1H-imidazo[4,5-c]quinolin-1-yl)piperidine-1-sulfamide] | 70 |  | 
Cn1cc(-c2ccc(-c3ccc4ncc5c(c4c3)n(CCNS(C)(=O)=O)c(=O)n5C)cn2)cn1 [Example 63, N-(2-(3-methyl-8-(6-(1-methyl-1H-pyrazol-4-yl)pyridin-3-yl)-2-oxo-2,3-dihydro-1H-imidazo[4,5-c]quinolin-1-yl)ethyl)methanesulfonamide] | 300 |  | 
Cn1cc(-c2ccc(-c3ccc4ncc5c(c4c3)n(C3CN(S(C)(=O)=O)C3)c(=O)n5C)cn2)cn1 [Example 64, 3-methyl-8-(6-(1-methyl-1H-pyrazol-4-yl)pyridin-3-yl)-1-(1-(methanesulfonyl)azetidin-3-yl)-1H-imidazo[4,5-c]quinolin-2(3H)-one] | 200 |  | 
